Experimental data from article PMC2362793, “A novel class of lipophilic quinazoline-based folic acid analogues: cytotoxic agents with a folate-independent locus” (British Journal of Cancer, 1999).

Tests used:
[1] = biological target: T1, thymidylate synthase (TS) (Mus musculus, UniProt P07607); test: inhibition of isolated mouse TS activity and inhibition kinetics (IC50 […], Kies […]); format: biochemical
T1 construct: gene Tyms; enzyme partially purified from the L1210:C15 TS-overproducing cell line
T1 sequence (P07607 whole entry): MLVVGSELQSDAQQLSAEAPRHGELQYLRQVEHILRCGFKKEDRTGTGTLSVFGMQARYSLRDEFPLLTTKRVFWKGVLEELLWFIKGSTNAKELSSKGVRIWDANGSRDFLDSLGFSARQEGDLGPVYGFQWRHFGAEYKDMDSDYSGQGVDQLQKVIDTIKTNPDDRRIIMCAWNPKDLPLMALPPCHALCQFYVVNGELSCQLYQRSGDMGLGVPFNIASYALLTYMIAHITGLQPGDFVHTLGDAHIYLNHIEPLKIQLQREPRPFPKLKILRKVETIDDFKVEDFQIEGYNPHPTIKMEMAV

[2] = biological target: T1, thymidylate synthase (TS); test: inhibition of isolated mouse TS activity at […] (R,S)-5,10-CH2FH4; format: biochemical

Row | Structure (SMILES) | Ki [1] [µM] | IC50 [2] [µM]
1 | C#CCN(Cc1cc2c(=O)[nH]c(C)nc2cc1Br)c1ccc(C(=O)NCc2ccccn2)cc1 [CB300179] | 0.16 | 
2 | C#CCN(Cc1cc2c(=O)[nH]c(C)nc2cc1Br)c1ccc(C(=O)NCc2ccncc2)cc1 [CB300189] |  | 0.25
